{"source": "paper PMC5951806", "about": "“Rapid labelling and covalent inhibition of intracellular native proteins using ligand-directed N-acyl-N-alkyl sulfonamide” (Nature Communications, 2018)", "assay_in_all_cases": "TMT LC-MSMS of 11-labelled proteins", "type_in_all_cases": "cell-based", "key": {"[1]": {"target": "T1, ADP/ATP translocase 2 (SLC25A5) (Homo sapiens, UniProt P05141)", "T1 sequence (P05141 1-298)": "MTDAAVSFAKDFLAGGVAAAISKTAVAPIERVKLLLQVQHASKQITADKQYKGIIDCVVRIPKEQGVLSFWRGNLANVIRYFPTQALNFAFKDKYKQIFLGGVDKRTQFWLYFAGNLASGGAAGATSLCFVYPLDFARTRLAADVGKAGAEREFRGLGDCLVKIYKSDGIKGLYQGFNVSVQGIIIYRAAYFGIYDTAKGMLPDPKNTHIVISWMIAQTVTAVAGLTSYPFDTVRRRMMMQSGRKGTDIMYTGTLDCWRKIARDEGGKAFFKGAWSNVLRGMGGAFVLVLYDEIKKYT"}, "[2]": {"target": "GTP-binding nuclear protein RAN (RAN) (Homo sapiens, UniProt P62826)"}, "[3]": {"target": "Isoform 2 of Heat shock protein HSP 90-alpha (HSP90AA1) (Homo sapiens, UniProt P07900)"}, "[4]": {"target": "Isoform 3 of L-lactate dehydrogenase A chain (LDHA) (Homo sapiens, UniProt P00338)"}, "[5]": {"conditions": "sheet Exp1, SKBR3 cells, 11 0.5 µM 3 h vs DMSO"}, "[6]": {"conditions": "sheet Exp1, SKBR3 cells, 11 0.5 µM 3 h vs with PU-H71 10 µM"}, "[7]": {"conditions": "sheet Merged, SKBR3 cells, 11 0.5 µM 3 h vs DMSO"}, "[8]": {"conditions": "sheet Merged, SKBR3 cells, 11 0.5 µM 3 h vs with PU-H71 10 µM"}}, "note": "Where “and” joins values, the source holds several entries; their conditions need not be identical. Equal values may be shown once.", "data": [{"smiles": "CC(=O)Oc1ccc2c(c1)Oc1cc(OC(C)=O)ccc1C21OC(=O)c2cc(C(=O)NCCOCCOCCNC(=O)CCCC(=O)N(CC#N)S(=O)(=O)c3ccc(C(=O)NCCCn4c(Sc5cc6c(cc5I)OCO6)nc5c(N)ncnc54)cc3)ccc21", "note": "[compound 11]", "values": [{"measurement": "Abundance Ratio: (11) / (11 with PU-H71)", "setting": "[1]; Exp3, SLC25A5", "result": 0.462}, {"measurement": "Abundance Ratio: (11) / (DMSO)", "setting": "[1]; Exp3, SLC25A5", "result": 2.668}, {"measurement": "Abundances (Grouped): 11", "setting": "[1]; Exp3, SLC25A5", "result": 245.2}, {"measurement": "Abundances (Grouped): 11 with PU-H71", "setting": "[1]; Exp3, SLC25A5", "result": 530.2}, {"measurement": "Abundance Ratio: (11) / (DMSO)", "setting": "[1]; [5]", "result": 5.138}, {"measurement": "Abundance Ratio: (11) / (11 with PU-H71)", "setting": "[1]; [6]", "result": 0.711}, {"measurement": "Abundance Ratio: (11) / (11 with PU-H71)", "setting": "[1]; sheet Exp2, SLC25A5", "result": 0.597}, {"measurement": "Abundance Ratio: (11) / (DMSO)", "setting": "[1]; sheet Exp2, SLC25A5", "result": 5.273}, {"measurement": "Abundances (Grouped): 11", "setting": "[1]; sheet Exp2, SLC25A5", "result": 116}, {"measurement": "Abundances (Grouped): 11 with PU-H71", "setting": "[1]; sheet Exp2, SLC25A5", "result": 194.4}, {"measurement": "Abundance Ratio: (11) / (DMSO)", "setting": "[1]; [7]", "result": 2.741}, {"measurement": "Abundance Ratio: (11) / (11 with PU-H71)", "setting": "[1]; [8]", "result": 0.563}, {"measurement": "Abundance Ratio: (11) / (11 with PU-H71)", "setting": "[2]; Exp3, RAN", "result": 0.98}, {"measurement": "Abundance Ratio: (11) / (DMSO)", "setting": "[2]; Exp3, RAN", "result": 2.764}, {"measurement": "Abundances (Grouped): 11", "setting": "[2]; Exp3, RAN", "result": 43.4}, {"measurement": "Abundances (Grouped): 11 with PU-H71", "setting": "[2]; Exp3, RAN", "result": 44.3}, {"measurement": "Abundance Ratio: (11) / (DMSO)", "setting": "[2]; [5]", "result": 2.108}, {"measurement": "Abundance Ratio: (11) / (11 with PU-H71)", "setting": "[2]; [6]", "result": 0.767}, {"measurement": "Abundance Ratio: (11) / (11 with PU-H71)", "setting": "[2]; sheet Exp2, RAN", "result": 0.778}, {"measurement": "Abundance Ratio: (11) / (DMSO)", "setting": "[2]; sheet Exp2, RAN", "result": 2.161}, {"measurement": "Abundances (Grouped): 11", "setting": "[2]; sheet Exp2, RAN", "result": 78}, {"measurement": "Abundances (Grouped): 11 with PU-H71", "setting": "[2]; sheet Exp2, RAN", "result": 100.3}, {"measurement": "Abundance Ratio: (11) / (DMSO)", "setting": "[2]; [7]", "result": 2.599}, {"measurement": "Abundance Ratio: (11) / (11 with PU-H71)", "setting": "[2]; [8]", "result": 0.946}, {"measurement": "Abundance Ratio: (11) / (11 with PU-H71)", "setting": "[3]; Exp3, HSP90AA1", "result": 4.154}, {"measurement": "Abundance Ratio: (11) / (DMSO)", "setting": "[3]; Exp3, HSP90AA1", "result": 13.53}, {"measurement": "Abundances (Grouped): 11", "setting": "[3]; Exp3, HSP90AA1", "result": 1235.3}, {"measurement": "Abundances (Grouped): 11 with PU-H71", "setting": "[3]; Exp3, HSP90AA1", "result": 297.4}, {"measurement": "Abundance Ratio: (11) / (DMSO)", "setting": "[3]; [5]", "result": 12.472}, {"measurement": "Abundance Ratio: (11) / (11 with PU-H71)", "setting": "[3]; [6]", "result": 3.732}, {"measurement": "Abundance Ratio: (11) / (11 with PU-H71)", "setting": "[3]; sheet Exp2, HSP90AA1", "result": 3.971}, {"measurement": "Abundance Ratio: (11) / (DMSO)", "setting": "[3]; sheet Exp2, HSP90AA1", "result": 11.996}, {"measurement": "Abundances (Grouped): 11", "setting": "[3]; sheet Exp2, HSP90AA1", "result": 903.3}, {"measurement": "Abundances (Grouped): 11 with PU-H71", "setting": "[3]; sheet Exp2, HSP90AA1", "result": 227.5}, {"measurement": "Abundance Ratio: (11) / (DMSO)", "setting": "[3]; [7]", "result": "13.5 and 13.53"}, {"measurement": "Abundance Ratio: (11) / (11 with PU-H71)", "setting": "[3]; [8]", "result": 4.154}, {"measurement": "Abundance Ratio: (11) / (11 with PU-H71)", "setting": "[4]; Exp3, LDHA", "result": 0.709}, {"measurement": "Abundance Ratio: (11) / (DMSO)", "setting": "[4]; Exp3, LDHA", "result": 4.426}, {"measurement": "Abundances (Grouped): 11", "setting": "[4]; Exp3, LDHA", "result": 517.9}, {"measurement": "Abundances (Grouped): 11 with PU-H71", "setting": "[4]; Exp3, LDHA", "result": 730.3}, {"measurement": "Abundance Ratio: (11) / (DMSO)", "setting": "[4]; [5]", "result": 4.186}, {"measurement": "Abundance Ratio: (11) / (11 with PU-H71)", "setting": "[4]; [6]", "result": 0.705}, {"measurement": "Abundance Ratio: (11) / (11 with PU-H71)", "setting": "[4]; sheet Exp2, LDHA", "result": 0.702}, {"measurement": "Abundance Ratio: (11) / (DMSO)", "setting": "[4]; sheet Exp2, LDHA", "result": 3.79}, {"measurement": "Abundances (Grouped): 11", "setting": "[4]; sheet Exp2, LDHA", "result": 554.9}, {"measurement": "Abundances (Grouped): 11 with PU-H71", "setting": "[4]; sheet Exp2, LDHA", "result": 790.3}, {"measurement": "Abundance Ratio: (11) / (DMSO)", "setting": "[4]; [7]", "result": 4.186}, {"measurement": "Abundance Ratio: (11) / (11 with PU-H71)", "setting": "[4]; [8]", "result": 0.705}]}]}
